Drawing on patent US10414811B2, “Protease-resistant lipidated GLP-1 analogs” (MEDIMMUNE LIMITED, priority 2015, dated 2019), this text covers EC50 for six compounds.

Format in all cases: cell-based
Experiment [1] has as its target T1, human GLP-1 receptor (GLP-1R) (Homo sapiens, UniProt P43220).
T1 construct: expressed in transfected cells
Put plainly: cAMP assay, human GLP-1R cells. A digest of the protocol:
(§1)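 Peptide-stimulated cAMP measured by two-step HTRF after a 30 min room-temperature incubation with receptor-expressing cells (hGLP-1R, hGIPR at 1×10^5 cells/ml; hGCGR at 2×10^5 cells/ml). Duplicate dilutions; EC50 from 4-parameter logistic fit of % Delta F.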
On the technique in general: Cyclic AMP is a second messenger, typically raised through Gs and lowered through Gi signalling.

The target in experiment [2] is T2, human glucagon receptor (GCGR) (Homo sapiens, UniProt P47871).
T2 construct: expressed in transfected cells
T2 sequence (P47871 26-477): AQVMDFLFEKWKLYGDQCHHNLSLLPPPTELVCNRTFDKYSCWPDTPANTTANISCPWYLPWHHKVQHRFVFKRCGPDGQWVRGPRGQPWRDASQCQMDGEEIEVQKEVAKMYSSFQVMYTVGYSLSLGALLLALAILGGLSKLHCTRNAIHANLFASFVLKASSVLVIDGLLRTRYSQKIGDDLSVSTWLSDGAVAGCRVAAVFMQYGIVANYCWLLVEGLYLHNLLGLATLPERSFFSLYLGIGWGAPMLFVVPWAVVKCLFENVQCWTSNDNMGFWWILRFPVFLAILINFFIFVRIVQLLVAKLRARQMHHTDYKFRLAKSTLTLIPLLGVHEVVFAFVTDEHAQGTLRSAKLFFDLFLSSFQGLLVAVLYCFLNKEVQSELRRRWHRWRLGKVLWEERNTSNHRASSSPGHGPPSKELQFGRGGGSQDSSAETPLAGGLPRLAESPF
Put plainly: cAMP assay, human GCGR cells. A digest of the protocol:
as §1

Experiment [3] deals with T3, human glucose-dependent insulinotropic peptide receptor (GIPR) (Homo sapiens, UniProt P48546).
T3 construct: expressed in transfected cells
T3 sequence (P48546 22-466): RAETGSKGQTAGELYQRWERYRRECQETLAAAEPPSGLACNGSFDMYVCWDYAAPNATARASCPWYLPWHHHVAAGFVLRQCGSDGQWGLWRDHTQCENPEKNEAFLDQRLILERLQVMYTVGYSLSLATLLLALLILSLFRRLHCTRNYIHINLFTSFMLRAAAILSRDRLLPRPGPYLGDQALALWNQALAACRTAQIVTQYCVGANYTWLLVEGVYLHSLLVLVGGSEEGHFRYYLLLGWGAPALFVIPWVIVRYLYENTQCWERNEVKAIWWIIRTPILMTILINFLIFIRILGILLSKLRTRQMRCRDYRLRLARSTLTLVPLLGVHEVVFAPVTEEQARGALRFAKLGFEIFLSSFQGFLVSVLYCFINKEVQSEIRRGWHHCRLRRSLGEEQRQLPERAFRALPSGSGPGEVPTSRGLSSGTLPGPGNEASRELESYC
Nature of the experiment: cAMP assay, human GIPR cells. A digest of the protocol: as §1

Where [4] appears, read: cAMP assay, first determination (n1), read-out: Primary assay EC50 GLP-1R n1.
Setting [5] is: cAMP assay, second determination (n2), read-out: Primary assay EC50 GLP-1R n2.
The mark [6] stands for this setting: mean of n1 and n2, read-out: Mean pM GLP-1R.
Setting [7] is: cAMP assay, first determination (n1), read-out: Primary assay EC50 Gluc-R (n1).
Where [8] appears, read: cAMP assay, second determination (n2), read-out: Primary assay EC50 Gluc-R (n2).
[9] abbreviates: cAMP assay, first determination (n1), read-out: Primary assay EC50 GIP-R (n1).
The mark [10] stands for this setting: cAMP assay, second determination (n2), read-out: Primary assay EC50 GIP-R (n2).
Setting [11] is: first run (n1), cAMP activity, read-out: Primary assay EC50 GLP-1R n1.
Where [12] appears, read: second run (n2), cAMP activity, read-out: Primary assay EC50 GLP-1R n2.
Where [13] appears, read: first run (n1), cAMP activity of substituted and mono-lipidated peptides, read-out: Primary assay EC50 Gluc-R.
Where [14] appears, read: second run (n2), cAMP activity, read-out: Primary assay EC50 Gluc-R.
Setting [15] is: first run (n1), cAMP activity, read-out: Primary assay EC50 GIP-R.
Setting [16] is: second run (n2), cAMP activity, read-out: Primary assay EC50 GIP-R.

SMILES strings stand for the structures. Read-outs that look alike come from different tables or passages of the source. Numbered stars: 1 amine (or outer) side, 2 acyl side, 3 side chain; on linkers, the order of the positions; unused ones are H or OH. Square brackets hold non-standard residues; d marks the D form. Side chains are listed from the residue outwards. Peptide text beside a SMILES is read from it. * marks the point of attachment. γGlu = O=C(O)[C@H](CCC(=O)[*:2])N[*:1]; Palmitoyl = CCCCCCCCCCCCCCCC(=O)*; αMeF = C[C@](N)(Cc1ccccc1)C(=O)O; αMeK = C[C@](N)(CCCCN)C(=O)O; Lauroyl = CCCCCCCCCCCC(=O)*; αMeS = C[C@](N)(CO)C(=O)O; AEEA = NCCOCCOCC(=O)O; Aib = CC(C)(N)C(=O)O

T1 sequence (P43220 24-463): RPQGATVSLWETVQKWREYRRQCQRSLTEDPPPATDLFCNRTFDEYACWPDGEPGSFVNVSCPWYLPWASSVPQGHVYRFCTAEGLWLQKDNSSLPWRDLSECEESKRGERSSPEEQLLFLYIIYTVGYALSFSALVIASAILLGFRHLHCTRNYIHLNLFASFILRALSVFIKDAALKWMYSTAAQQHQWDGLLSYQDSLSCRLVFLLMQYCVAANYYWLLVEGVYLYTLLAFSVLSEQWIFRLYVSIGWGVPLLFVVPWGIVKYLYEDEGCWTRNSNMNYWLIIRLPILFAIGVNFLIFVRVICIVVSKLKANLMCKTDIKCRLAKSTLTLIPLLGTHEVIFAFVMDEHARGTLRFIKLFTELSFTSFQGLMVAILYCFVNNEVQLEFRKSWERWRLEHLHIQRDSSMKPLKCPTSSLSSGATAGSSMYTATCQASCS

For `CC[C@H](C)[C@H](NC(=O)[C@](C)(Cc1ccccc1)NC(=O)[C@H](CCC(=O)O)NC(=O)[C@H](CCCCNC(=O)COCCOCCNC(=O)COCCOCCNC(=O)CC[C@H](NC(=O)CCCCCCCCCCCCCCCCC(=O)O)C(=O)O)NC(=O)[C@H](C)NC(=O)[C@H](C)NC(=O)[C@H](CCC(=O)O)NC(=O)CNC(=O)[C@H](CCC(=O)O)NC(=O)[C@H](CC(C)C)NC(=O)[C@](C)(Cc1ccccc1)NC(=O)[C@H](CO)NC(=O)[C@H](CO)NC(=O)[C@@H](NC(=O)[C@H](CC(=O)O)NC(=O)[C@H](CO)NC(=O)[C@@H](NC(=O)[C@](C)(Cc1ccccc1)NC(=O)[C@H](CO)NC(=O)CNC(=O)[C@H](CCC(=O)O)NC(=O)C(C)(C)NC(=O)[C@@H](N)Cc1c[nH]cn1)[C@@H](C)O)C(C)C)C(=O)N[C@@H](C)C(=O)N[C@@](C)(Cc1ccccc1)C(=O)N[C@H](C(=O)N[C@H](C(=O)N[C@@H](CCCCN)C(=O)NCC(=O)NCC(N)=O)C(C)C)C(C)C` [compound 40], the EC50 in experiment [1] (setting [4]) was 1800 pM; in experiment [1] (setting [5]), 570 pM; in experiment [1] (setting [6]), 1170 pM; in experiment [2] (setting [7]), not below 85 nM; in experiment [2] (setting [8]) it was not below 26 nM; in experiment [3] (setting [9]), not below 85 nM. Besides, the EC50 in experiment [3] (setting [10]) is not below 26 nM.
For the compound `CC[C@H](C)[C@H](NC(=O)[C@](C)(Cc1ccccc1)NC(=O)[C@H](CCC(=O)O)NC(=O)[C@](C)(CCCCN)NC(=O)[C@H](C)NC(=O)[C@H](C)NC(=O)[C@H](CCC(=O)O)NC(=O)CNC(=O)[C@H](CCC(=O)O)NC(=O)[C@H](CC(C)C)NC(=O)[C@](C)(Cc1ccccc1)NC(=O)[C@H](CO)NC(=O)[C@](C)(CO)NC(=O)[C@@H](NC(=O)[C@H](CC(=O)O)NC(=O)[C@H](CO)NC(=O)[C@@H](NC(=O)[C@](C)(Cc1ccccc1)NC(=O)[C@H](CO)NC(=O)CNC(=O)[C@H](CCC(=O)O)NC(=O)C(C)(C)NC(=O)[C@@H](N)Cc1c[nH]cn1)[C@@H](C)O)C(C)C)C(=O)N[C@@H](C)C(=O)N[C@@](C)(Cc1ccccc1)C(=O)N[C@H](C(=O)N[C@H](C(=O)N[C@@H](CCCCNC(=O)CCCCCNC(=O)CCCCCNC(=O)CCCCCCCCCCCCCCCCC(=O)O)C(=O)NCC(=O)NCC(N)=O)C(C)C)C(C)C` [compound 195], the EC50 in experiment [1] (setting [11]) was 170 pM; in experiment [1] (setting [6]), 107 pM; in experiment [1] (setting [12]), 46 pM; in experiment [2] (setting [13]), not below 27 nM; in experiment [2] (setting [14]), not below 27 nM; in experiment [3] (setting [15]), not below 27 nM. Moreover, in experiment [3] (setting [16]), the EC50 was not below 27 nM.
Turning to `CCCCCCCCCCCC(=O)N[C@@H](CCC(=O)NCCOCCOCC(=O)NCCOCCOCC(=O)NCCCC[C@H](NC(=O)CNC(=O)[C@H](CCC(=O)O)NC(=O)[C@H](CCCCNC(=O)COCCOCCNC(=O)COCCOCCNC(=O)CC[C@H](NC(=O)CCCCCCCCCCC)C(=O)O)NC(=O)[C@H](Cc1ccc(O)cc1)NC(=O)[C@H](CO)NC(=O)[C@](C)(CO)NC(=O)[C@@H](NC(=O)[C@H](CC(=O)O)NC(=O)[C@H](CO)NC(=O)[C@@H](NC(=O)[C@](C)(Cc1ccccc1)NC(=O)[C@H](CO)NC(=O)CNC(=O)[C@H](CCC(=O)O)NC(=O)C(C)(C)NC(=O)[C@@H](N)Cc1c[nH]cn1)[C@@H](C)O)C(C)C)C(=O)N[C@@H](C)C(=O)N[C@@H](C)C(=O)N[C@@](C)(CCCCN)C(=O)N[C@@H](CCC(=O)O)C(=O)N[C@@H](Cc1ccccc1)C(=O)N[C@H](C(=O)N[C@@H](C)C(=O)N[C@@H](Cc1ccccc1)C(=O)N[C@@H](CCCCNC(=O)COCCOCCNC(=O)COCCOCCNC(=O)CC[C@H](NC(=O)CCCCCCCCCCC)C(=O)O)C(=O)N[C@H](C(=O)N[C@@H](CCC(=O)O)C(=O)NCC(=O)NCC(N)=O)C(C)C)[C@@H](C)CC)C(=O)O` [compound 484] (H-H[Aib]EGS[αMeF]TSDV[αMeS]SYK([AEEA-AEEA-γGlu-Lauroyl])EGK([AEEA-AEEA-γGlu-Lauroyl])AA[αMeK]EFIAFK([AEEA-AEEA-γGlu-Lauroyl])VEGG-NH2), the EC50 is 163 pM in experiment [1] (tris-lipidated peptides, replicate n1, read-out: Primary assay EC50 GLP-1R n1); not below 19.9 nM in experiment [2] (tris-lipidated peptides, first replicate, read-out: Primary assay EC50 Gluc-R (n1)); not below 19.9 nM in experiment [3] (tris-lipidated peptides, first replicate, read-out: Primary assay EC50 GIP-R (n1)).
Turning to `CCCCCCCCCCCCCCCC(=O)N[C@@H](CCC(=O)NCCCC[C@H](NC(=O)[C@H](C)NC(=O)[C@H](C)NC(=O)[C@H](CCC(=O)O)NC(=O)CNC(=O)[C@H](CCC(=O)O)NC(=O)[C@H](CC(C)C)NC(=O)[C@](C)(Cc1ccccc1)NC(=O)[C@H](CO)NC(=O)[C@](C)(CO)NC(=O)[C@@H](NC(=O)[C@H](CC(=O)O)NC(=O)[C@H](CC(=O)O)NC(=O)[C@@H](NC(=O)[C@](C)(Cc1ccccc1)NC(=O)[C@H](CO)NC(=O)CNC(=O)[C@H](CCC(=O)O)NC(=O)C(C)(C)NC(=O)[C@@H](N)Cc1c[nH]cn1)[C@@H](C)O)C(C)C)C(=O)N[C@@H](CCC(=O)O)C(=O)N[C@@](C)(Cc1ccccc1)C(=O)N[C@H](C(=O)N[C@@H](C)C(=O)N[C@@](C)(Cc1ccccc1)C(=O)N[C@H](C(=O)N[C@H](C(=O)N[C@@](C)(CCCCN)C(=O)NCC(=O)NCC(N)=O)C(C)C)C(C)C)[C@@H](C)CC)C(=O)O` [compound 37] (H-H[Aib]EGS[αMeF]TDDV[αMeS]S[αMeF]LEGEAAK([γGlu-Palmitoyl])E[αMeF]IA[αMeF]VV[αMeK]GG-NH2), the EC50 in experiment [1] (setting [4]) was 7300 pM; in experiment [1] (setting [5]), 1700 pM; in experiment [1] (setting [6]) it was 4500 pM; in experiment [2] (setting [7]), not below 92 nM; in experiment [2] (setting [8]), not below 28 nM; in experiment [3] (setting [9]) it was not below 92 nM. Also, the EC50 in experiment [3] (setting [10]) was not below 28 nM.
As to `CC[C@H](C)[C@H](NC(=O)[C@](C)(Cc1ccccc1)NC(=O)[C@H](CCC(=O)O)NC(=O)[C@](C)(CCCCN)NC(=O)[C@H](C)NC(=O)[C@H](C)NC(=O)[C@H](CCC(=O)O)NC(=O)CNC(=O)[C@H](CCC(=O)O)NC(=O)[C@H](CC(C)C)NC(=O)[C@](C)(Cc1ccccc1)NC(=O)[C@H](CO)NC(=O)[C@](C)(CO)NC(=O)[C@@H](NC(=O)[C@H](CC(=O)O)NC(=O)[C@H](CO)NC(=O)[C@@H](NC(=O)[C@](C)(Cc1ccccc1)NC(=O)[C@H](CO)NC(=O)CNC(=O)[C@H](CCC(=O)O)NC(=O)C(C)(C)NC(=O)[C@@H](N)Cc1c[nH]cn1)[C@@H](C)O)C(C)C)C(=O)N[C@@H](C)C(=O)N[C@@](C)(Cc1ccccc1)C(=O)N[C@H](C(=O)N[C@H](C(=O)N[C@@H](CCCCNC(=O)CC[C@H](NC(=O)CC[C@H](NC(=O)CC[C@H](NC(=O)CCCCCCCCCCCCCCCCC(=O)O)C(=O)O)C(=O)O)C(=O)O)C(=O)NCC(=O)NCC(N)=O)C(C)C)C(C)C` [compound 193], the EC50 in experiment [1] (setting [11]) is 330 pM; in experiment [1] (setting [6]), 213 pM; in experiment [1] (setting [12]) it was 95 pM; in experiment [2] (setting [13]), not below 26 nM; in experiment [2] (setting [14]) it was not below 26 nM; in experiment [3] (setting [15]), not below 26 nM. The EC50 in experiment [3] (setting [16]) was not below 26 nM.
Take `CC[C@H](C)[C@H](NC(=O)[C@](C)(Cc1ccccc1)NC(=O)[C@H](CCC(=O)O)NC(=O)[C@](C)(CCCCN)NC(=O)[C@H](C)NC(=O)[C@H](C)NC(=O)[C@H](CCC(=O)O)NC(=O)CNC(=O)[C@H](CCC(=O)O)NC(=O)[C@H](CC(C)C)NC(=O)[C@](C)(Cc1ccccc1)NC(=O)[C@H](CO)NC(=O)[C@](C)(CO)NC(=O)[C@@H](NC(=O)[C@H](CC(=O)O)NC(=O)[C@H](CO)NC(=O)[C@@H](NC(=O)[C@H](CCCCNC(=O)COCCOCCNC(=O)COCCOCCNC(=O)CC[C@H](NC(=O)CCCCCCCCCCCCCCCCC(=O)O)C(=O)O)NC(=O)[C@H](CO)NC(=O)CNC(=O)[C@H](CCC(=O)O)NC(=O)C(C)(C)NC(=O)[C@@H](N)Cc1c[nH]cn1)[C@@H](C)O)C(C)C)C(=O)N[C@@H](C)C(=O)N[C@@](C)(Cc1ccccc1)C(=O)N[C@H](C(=O)N[C@H](C(=O)N[C@@](C)(CCCCN)C(=O)NCC(=O)NCC(N)=O)C(C)C)C(C)C` [compound 123]: the EC50 was 4900 pM in experiment [1] (setting [4]); 4430 pM in experiment [1] (setting [5]); 4660 pM in experiment [1] (setting [6]); not below 26 nM in experiment [2] (setting [7]); not below 25.6 nM in experiment [2] (setting [8]); not below 26 nM in experiment [3] (setting [9]). In addition, in experiment [3] (setting [10]), the EC50 is not below 25.6 nM.
